Our source for the IC50 values is patent publication US10227346B2, “Methyl- and trifluoromethyl-substituted pyrrolopyridine modulators of RORC2 and methods of use therof” (Pfizer Inc., priority 2014, dated 2019).

This test has as its system IL-17 production from human Th17 cells. In words: IL-17 production from human Th17 cells.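 Further: purified human CD4+ T cells activated with anti-CD3 plus anti-CD28 and a Th17-inducing cytokine cocktail, with compound at serial concentrations versus no compound.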 The format is cell-based. The conditions noted are these: IL-17A in supernatant by ELISA after 6 days, human CD4+ T cells under Th17 differentiation.

pIC50: −log10 of the molar value.

Consider `CC(C(=O)N1CCC(c2cn(C)c3ncc(NC(=O)c4cccc(C#N)c4)c(C(F)(F)F)c23)CC1)C1CC1` (racemic) [Example 25, Rac-3-cyano-N-(3-(1-(2-cyclopropylpropanoyl)piperidin-4-yl)-1-methyl-4-(trifluoromethyl)-1H-pyrrolo[2,3-b]pyridin-5-yl)benzamide], for which the pIC50 is 7.85.
For `Cc1c(NC(=O)c2cccc(C#N)c2)cnc2c1c([C@H]1C[C@H](C)N(C(=O)C3CCCC3)C[C@H]1C)cn2C` (relative stereo) [Example 97, rel-3-cyano-N-(3-((2S,4S,5S)-1-(cyclopentanecarbonyl)-2,5-dimethylpiperidin-4-yl)-1,4-dimethyl-1H-pyrrolo[2,3-b]pyridin-5-yl)benzamide] the value was 6.91; for `Cn1cc(C2CCN(C(=O)[C@H]3CCCS3)CC2)c2c(C(F)(F)F)c(NC(=O)c3cccc(C#N)c3)cnc21` (single isomer, unassigned) [Example 28], 6.93.
Regarding `Cn1cc(C2CCN(C(=O)[C@@H]3CCCS3)CC2)c2c(C(F)(F)F)c(NC(=O)c3cccc(C#N)c3)cnc21` (single isomer, unassigned) [Example 29], the pIC50 was 8.07.
Take `Cc1c(NC(=O)c2cccc(C#N)c2)cnc2c1c(C1CCN(C(=O)[C@H]3CCC[C@@H]3C)CC1)cn2C` (single isomer, unassigned) [Example 46]: the pIC50 was 7.24.
In turn, `Cc1c(NC(=O)c2cccc(C#N)c2)cnc2c1c(C1CCN(C(=O)[C@@H]3CCC[C@H]3C)CC1)cn2C` (single isomer, unassigned) [Example 47] showed a pIC50 of 8.08.
On to `Cc1c(NC(=O)c2cccc(C#N)c2)cnc2c1c(C1CCN(C(=O)[C@@H]3CCC[C@@H]3C(C)C)CC1)cn2C` (single isomer, unassigned) [Example 48], for which the pIC50 is 7.87.
In turn, `Cc1c(NC(=O)c2cccc(C#N)c2)cnc2c1c(C1CCN(C(=O)[C@@H]3CCCC3C(C)C)CC1)cn2C` (stereo in doubt) [Example 49, 3-cyano-N-(3-(1-((1R,2R)-2-isopropylcyclopentane-1-carbonyl)piperidin-4-yl)-1,4-dimethyl-1H-pyrrolo[2,3-b]pyridin-5-yl)benzamide] gave a pIC50 of 8.10.
On to `Cn1cc(C2CCN(C(=O)C3CCCC3)CC2)c2c(C(F)(F)F)c(NC(=O)c3ccc(F)c(C#N)c3)cnc21` [Example 3, 3-cyano-N-(3-(1-(cyclopentanecarbonyl)piperidin-4-yl)-1-methyl-4-(trifluoromethyl)-1H-pyrrolo[2,3-b]pyridin-5-yl)-4-fluorobenzamide], for which the pIC50 is 7.41. Compared with the last compound, the pIC50 is 0.69 log units lower.
The compound `CC(C)C(=O)N1CCC(c2cn(C)c3ncc(NC(=O)c4cccc(C#N)c4)c(C(F)(F)F)c23)CC1` [Example 5, 3-cyano-N-(3-(1-isobutyrylpiperidin-4-yl)-1-methyl-4-(trifluoromethyl)-1H-pyrrolo[2,3-b]pyridin-5-yl)benzamide] showed a pIC50 of 8.02.
In the case of `CC(C)C(=O)N1CCC(c2cn(C)c3ncc(NC(=O)c4ccc(F)c(C#N)c4)c(C(F)(F)F)c23)CC1` [Example 9, 3-cyano-4-fluoro-N-(3-(1-isobutyrylpiperidin-4-yl)-1-methyl-4-(trifluoromethyl)-1H-pyrrolo[2,3-b]pyridin-5-yl)benzamide], the pIC50 was 7.56.
For `COc1ccc(C(=O)Nc2cnc3c(c(C4CCN(C(=O)C(C)C)CC4)cn3C)c2C(F)(F)F)cc1Cl` [Example 10, 3-chloro-N-(3-(1-isobutyrylpiperidin-4-yl)-1-methyl-4-(trifluoromethyl)-1H-pyrrolo[2,3-b]pyridin-5-yl)-4-methoxybenzamide] the value was 7.29.
The compound `CC(C)C(=O)N1CCC(c2cn(C)c3ncc(NC(=O)c4ccc(Cl)c(C#N)c4)c(C(F)(F)F)c23)CC1` [Example 11, 4-chloro-3-cyano-N-(3-(1-isobutyrylpiperidin-4-yl)-1-methyl-4-(trifluoromethyl)-1H-pyrrolo[2,3-b]pyridin-5-yl)benzamide] gave a pIC50 of 8.11.
`CC(C)C(=O)N1CCC(c2cn(C)c3ncc(NC(=O)c4ccc(F)c(Cl)c4)c(C(F)(F)F)c23)CC1` [Example 12, 3-chloro-4-fluoro-N-(3-(1-isobutyrylpiperidin-4-yl)-1-methyl-4-(trifluoromethyl)-1H-pyrrolo[2,3-b]pyridin-5-yl)benzamide] had a pIC50 of 7.24. Compared with the last compound, the pIC50 is 0.87 log units lower.
As for `COc1cc(Cl)cc(C(=O)Nc2cnc3c(c(C4CCN(C(=O)C(C)C)CC4)cn3C)c2C(F)(F)F)c1` [Example 13, 3-chloro-N-(3-(1-isobutyrylpiperidin-4-yl)-1-methyl-4-(trifluoromethyl)-1H-pyrrolo[2,3-b]pyridin-5-yl)-5-methoxybenzamide], the pIC50 was 7.31.
`Cn1cc(C2CCN(C(=O)[C@H]3C[C@H]4CCCC[C@H]4C3)CC2)c2c(C(F)(F)F)c(NC(=O)c3cccc(C#N)c3)cnc21` [Example 16, 3-cyano-N-(1-methyl-3-(1-((2r,3aR,7aS)-octahydro-1H-indene-2-carbonyl)piperidin-4-yl)-4-(trifluoromethyl)-1H-pyrrolo[2,3-b]pyridin-5-yl)benzamide] gave a negative logarithm of the IC50 (pIC50) of 7.97.
In turn, `Cn1cc(C2CCN(C(=O)CC3CCC3)CC2)c2c(C(F)(F)F)c(NC(=O)c3cccc(C#N)c3)cnc21` [Example 18, 3-cyano-N-(3-(1-(2-cyclobutylacetyl)piperidin-4-yl)-1-methyl-4-(trifluoromethyl)-1H-pyrrolo[2,3-b]pyridin-5-yl)benzamide] gave a pIC50 of 7.97.
Compound `Cn1cc(C2CCN(C(=O)CC3CCCCC3)CC2)c2c(C(F)(F)F)c(NC(=O)c3cccc(C#N)c3)cnc21` [Example 20, 3-cyano-N-(3-(1-(2-cyclohexylacetyl)piperidin-4-yl)-1-methyl-4-(trifluoromethyl)-1H-pyrrolo[2,3-b]pyridin-5-yl)benzamide] gave a pIC50 of 7.73.
`Cn1cc(C2CCN(C(=O)CC3CC3)CC2)c2c(C(F)(F)F)c(NC(=O)c3cccc(C#N)c3)cnc21` [Example 24, 3-cyano-N-(3-(1-(2-cyclopropylacetyl)piperidin-4-yl)-1-methyl-4-(trifluoromethyl)-1H-pyrrolo[2,3-b]pyridin-5-yl)benzamide] showed a pIC50 of 7.76.
As for `Cc1cccc(F)c1C(=O)N1CCC(c2cn(C)c3ncc(NC(=O)c4cccc(C#N)c4)c(C)c23)CC1` [Example 33, 3-cyano-N-(3-(1-(2-fluoro-6-methylbenzoyl)piperidin-4-yl)-1,4-dimethyl-1H-pyrrolo[2,3-b]pyridin-5-yl)benzamide], the pIC50 is 7.86.
For `Cc1c(NC(=O)c2cccc(C#N)c2)cnc2c1c(C1CCN(C(=O)c3cccc4c3CCC4)CC1)cn2C` [Example 34, 3-cyano-N-(3-(1-(2,3-dihydro-1H-indene-4-carbonyl)piperidin-4-yl)-1,4-dimethyl-1H-pyrrolo[2,3-b]pyridin-5-yl)benzamide], the pIC50 is 8.02.
Compound `Cc1c(NC(=O)c2cccc(C#N)c2)cnc2c1c(C1CCN(C(=O)[C@H](C)C(C)C)CC1)cn2C` [Example 37, (R)-3-cyano-N-(3-(1-(2,3-dimethylbutanoyl)piperidin-4-yl)-1,4-dimethyl-1H-pyrrolo[2,3-b]pyridin-5-yl)benzamide] gave a negative-log IC50 (pIC50) of 8.04.
Consider `Cc1c(NC(=O)c2cc(Cl)ccc2F)cnc2c1c(C1CCN(C(=O)[C@H](C)C(C)(C)C)CC1)cn2C` [Example 41, (R)-5-chloro-N-(1,4-dimethyl-3-(1-(2,3,3-trimethylbutanoyl)piperidin-4-yl)-1H-pyrrolo[2,3-b]pyridin-5-yl)-2-fluorobenzamide], for which the pIC50 was 7.72.
`COc1cc(Cl)cc(C(=O)Nc2cnc3c(c(C4CCN(C(=O)[C@H](C)C(C)(C)C)CC4)cn3C)c2C)c1` [Example 42, (R)-3-chloro-N-(1,4-dimethyl-3-(1-(2,3,3-trimethylbutanoyl)piperidin-4-yl)-1H-pyrrolo[2,3-b]pyridin-5-yl)-5-methoxybenzamide] gave a negative-log IC50 (pIC50) of 7.50.
In turn, `Cc1c(NC(=O)c2cccc(C#N)c2)cnc2c1c(C1CCN(C(=O)[C@H](C)C34CC(C3)C4)CC1)cn2C` [Example 50, (R)—N-(3-(1-(2-(bicyclo[1.1.1]pentan-1-yl)propanoyl)piperidin-4-yl)-1,4-dimethyl-1H-pyrrolo[2,3-b]pyridin-5-yl)-3-cyanobenzamide] had a pIC50 of 8.47.
For the compound `Cc1c(NC(=O)c2cccc(C#N)c2)cnc2c1c(C1CCN(C(=O)[C@H](C)C3CCCC3)CC1)cn2C` [Example 51, (R)-3-cyano-N-(3-(1-(2-cyclopentylpropanoyl)piperidin-4-yl)-1,4-dimethyl-1H-pyrrolo[2,3-b]pyridin-5-yl)benzamide], the pIC50 was 8.19.
The compound `C[C@@H](C(=O)N1CCC(c2cn(C)c3ncc(NC(=O)c4cc(O)cc(C#N)c4)c(C(F)(F)F)c23)CC1)C(C)(C)C` [Example 54, (R)-3-cyano-5-hydroxy-N-(1-methyl-4-(trifluoromethyl)-3-(1-(2,3,3-trimethylbutanoyl)piperidin-4-yl)-1H-pyrrolo [2,3-b]pyridin-5-yl)benzamide] gave a pIC50 of 8.30.
`Cn1cc(C2CCN(C(=O)C3CCCC3)CC2)c2c(C(F)(F)F)c(NC(=O)c3cc(O)cc(C#N)c3)cnc21` [Example 55, 3-cyano-N-(3-(1-(cyclopentanecarbonyl)piperidin-4-yl)-1-methyl-4-(trifluoromethyl)-1H-pyrrolo[2,3-b]pyridin-5-yl)-5-hydroxybenzamide] showed a pIC50 of 8.22. This pIC50 and that of the compound before are within 0.2 log units of each other.
`Cc1c(NC(=O)c2cc(O)cc(C#N)c2)cnc2c1c(C1CCN(C(=O)[C@H](C)C(C)(C)C)CC1)cn2C` [Example 56, (R)-3-cyano-N-(1,4-dimethyl-3-(1-(2,3,3-trimethylbutanoyl)piperidin-4-yl)-1H-pyrrolo[2,3-b]pyridin-5-yl)-5-hydroxybenzamide]: the pIC50 is 8.31.
Consider `Cc1ccc(C(=O)Nc2cnc3c(c([C@@H]4CCN(C(=O)C5CCCC5)C(C)(C)C4)cn3C)c2C)cc1C#N` [Example 59, (R)-3-cyano-N-(3-(1-(cyclopentanecarbonyl)-2,2-dimethylpiperidin-4-yl)-1,4-dimethyl-1H-pyrrolo[2,3-b]pyridin-5-yl)-4-methylbenzamide], for which the pIC50 was 8.00. Against the preceding compound, the pIC50 is 0.31 log units lower.
